Source: US20150072933A1, “NOVEL SEQUENCES FOR THE CONTROL OF REPRODUCTION IN FISH” (Yissum Research Development Company of the Hebrew …, priority 2011, published 2015)
“Also recorded” adds a separate entry of the source. Where a SMILES comes first, the peptide text is derived from it.

Legend:
zfTac3rb [1] = test: Receptor transactivation assay, CRE-Luc reporter (PKA activation), COS-7 cells expressing zfTac3rb; type: cell-based, zebrafish; settings: mean ± SEM
Method: (§1) In order to study the signaling pathways of the novel zebrafish NKBs, the entire coding regions of zftac3ra (denoted by SEQ ID NO:6) or zftac3rb (denoted by SEQ ID NO:7), or the cDNA clone for human NK3R (obtained from the Missouri S&T cDNA Resource Center, were inserted into pcDNA3.1 (Invitrogen). The luciferase assay was conducted according to Biran et al., 2008 [4] COS-7 cells were grown in DMEM supplemented with 10% FBS, 1% glutamine, 100 U/ml penicillin, and […] streptomycin (Biological Industries) under 5% CO2 until confluent. Cotransfection of either pc-zftac3ra, pc-zftac3rb or pc-Htac3r (at 3 μg/plate), a reporter plasmid (at 2 μg/plate), and pCMV-β-galactosidase (at 1 μg/plate) was carried out with FuGENE 6.0 reagent (Roche). The cells were serum starved for 36 h, stimulated with vehicle or various concentrations of either human (Sigma) or zebrafish NKBs for 6 h, and then harvested and analyzed. Lysates prepared from the harvested cells were assayed for both luciferase activity and β-galactosidase activity, which was used as an internal standard to normalize the luciferase activity directed by the test plasmid. Transfection experiments were performed in triplicate with three independently isolated sets. Protein structure prediction of zebrafish NKBa, NKBb or NKF were performed on I-Tasser servers.
(§2) The response, binding selectivity and signal transduction pathways of the novel tachykinin receptors to their agonists were evaluated by functional expression analysis, using COS-7 cells.
(§3) The NKB analogues (i.e. the NKBa-analog, NKBb-analog and NKF-analog, as denoted by SEQ ID NO. 44-46) were first analyzed in comparison to their native forms in a transactivation assay, using reporter genes for specific signal transduction pathways. To validate the specificity of the serum-responsive element (SRE)-Luc and cAMP-responsive element (CRE)-Luc reporter systems, specific activators for PLC/PKC and AC/PKA signaling pathways were used in control experiments.
(§4) Thus, the ability of the three novel piscine peptides (namely, NKBa, NKBb and NKF, denoted by SEQ ID NO.40, 41 and 42), as well as the ability of the three analogous agonistic peptides, namely, NKBa-analog, NKBb-analog and NKF-analog, to differentially activate the different tac3 receptors, using SRE as a reporter gene that follows PKC activation and CRE as a reporter gene for the PKA pathway, was tested. Human NK3R (human NKB receptor) and human NKB served as controls.

zfTac3ra [2] = test: Receptor transactivation assay, CRE-Luc reporter (PKA activation), COS-7 cells expressing zfTac3ra; type: cell-based, zebrafish; settings: mean ± SEM
Method: as §1, §2, §3, §4

[3] = test system: NKB receptors (human NKBR, zebrafish Tac3ra, Tac3rb); test: Receptor transactivation assay, statements in words across SRE-Luc and CRE-Luc reporters and receptors; type: cell-based
Method: as §1, §2, §4

[4] = biological target: T1, NKB receptors (human NKBR, zebrafish Tac3ra, Tac3rb) (Homo sapiens, UniProt P29371); test: as above; type: cell-based; settings: human NKBR (huNK3R), in both signal transduction systems (SRE-Luc and CRE-Luc)
T1 construct: expressed in transfected cells; host or cells: COS-7
T1 sequence (P29371 1-465): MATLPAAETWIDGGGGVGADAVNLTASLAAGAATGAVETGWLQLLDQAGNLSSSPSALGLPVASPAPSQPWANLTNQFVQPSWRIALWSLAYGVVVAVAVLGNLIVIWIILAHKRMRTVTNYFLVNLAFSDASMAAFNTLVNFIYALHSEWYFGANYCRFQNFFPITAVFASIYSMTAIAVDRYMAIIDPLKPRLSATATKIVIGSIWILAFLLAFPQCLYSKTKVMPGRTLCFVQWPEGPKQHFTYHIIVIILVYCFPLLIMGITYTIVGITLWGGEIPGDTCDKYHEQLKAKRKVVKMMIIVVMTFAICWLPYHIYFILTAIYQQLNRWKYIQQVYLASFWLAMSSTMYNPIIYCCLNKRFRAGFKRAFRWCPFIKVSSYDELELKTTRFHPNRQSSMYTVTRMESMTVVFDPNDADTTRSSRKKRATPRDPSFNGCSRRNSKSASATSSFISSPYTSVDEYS
Method: as §1, §2, §4

zfTac3rb [5] = test: Receptor transactivation assay, SRE-Luc reporter (PKC activation), COS-7 cells expressing zfTac3rb; type: cell-based, zebrafish; settings: mean ± SEM
Method: as §1, §2, §3, §4

huNK3R = biological target: T2, huNK3R (Homo sapiens, UniProt P29371); test: Receptor transactivation assay, SRE-Luc reporter (PKC activation), COS-7 cells expressing human NK3R; type: cell-based
T2 construct: host or cells: COS-7
T2 sequence (P29371 1-465): T1 sequence (P29371 1-465)
Method: In order to study the signaling pathways of the novel zebrafish NKBs, the entire coding regions of zftac3ra (denoted by SEQ ID NO:6) or zftac3rb (denoted by SEQ ID NO:7), or the cDNA clone for human NK3R (obtained from the Missouri S&T cDNA Resource Center, were inserted into pcDNA3.1 (Invitrogen). The luciferase assay was conducted according to Biran et al., 2008 [4] COS-7 cells were grown in DMEM supplemented with 10% FBS, 1% glutamine, 100 U/ml penicillin, and 100 mg/ml streptomycin (Biological Industries) under 5% CO2 until confluent. Cotransfection of either pc-zftac3ra, pc-zftac3rb or pc-Htac3r (at 3 μg/plate), a reporter plasmid (at 2 μg/plate), and pCMV-β-galactosidase (at 1 μg/plate) was carried out with FuGENE 6.0 reagent (Roche). The cells were serum starved for 36 h, stimulated with vehicle or various concentrations of either human (Sigma) or zebrafish NKBs for 6 h, and then harvested and analyzed. Lysates prepared from the harvested cells were assayed for both luciferase activity and β-galactosidase activity, which was used as an internal standard to normalize the luciferase activity directed by the test plasmid. Transfection experiments were performed in triplicate with three independently isolated sets.

zfTac3ra [6] = test: Receptor transactivation assay, SRE-Luc reporter (PKC activation), COS-7 cells expressing zfTac3ra; type: cell-based, zebrafish; settings: mean ± SEM
Method: as §1, §2, §3, §4

[7] = test system: sexually mature female zebrafish; test: In vivo effect of NKBs in zebrafish: LH secretion after intraperitoneal injection; settings: single intraperitoneal injection, 20 pmol/g body weight, sexually mature female zebrafish
Method: In vivo studies involved administering NKBa, NKBb or NKF and the analogues thereof, denoted by SEQ ID NO. 40-42 and 44-46, respectively to immature fish (20 fish/treatment). The circulating levels of E2, 11KT, LH and FSH were determined prior to hormonal manipulations, in order to confirm that these fish were indeed sexually immature. The fish were injected intramuscularly (i.m.) or intraperitonealy (i.p.) at various doses. Adult female zebra fish were injected intraperitoneally with 20 pmol/g body weight. Control fish were injected with saline. Plasma samples were collected at time 0, and specific times after the administration of the peptide/s, to determine the levels of E2, 11KT, LH and FSH.
To further characterize the role of the NKB/NKBR system in fish reproduction the in vivo biological function of zebrafish NKB peptides was next examined.

Compound: CC[C@H](C)[C@H](NC(=O)CNC(=O)[C@@H](NC(=O)[C@@H](N)CO)[C@@H](C)O)C(=O)N[C@@H](CC(N)=O)C(=O)N[C@@H](CCCNC(=N)N)C(=O)N[C@@H](CCC(=O)O)C(=O)N[C@@H](C)C(=O)N[C@@H](Cc1c[nH]cn1)C(=O)N[C@@H](CC(C)C)C(=O)N1CCC[C@H]1C(=O)N[C@@H](Cc1ccccc1)C(=O)N[C@@H](CCCNC(=N)N)C(=O)N1CCC[C@H]1C(=O)N[C@@H](CC(N)=O)C(=O)N[C@@H](CCSC)C(=O)N[C@@H](CC(N)=O)C(=O)N[C@@H](CC(=O)O)C(=O)N[C@H](C(=O)N[C@@H](Cc1ccccc1)C(=O)N[C@H](C(=O)NCC(=O)N[C@@H](CC(C)C)C(=O)N[C@@H](CC(C)C)C(N)=O)C(C)C)[C@@H](C)CC [zfNKBb] (H-STGINREAHLPFRPNMNDIFVGLL-NH2; N-terminus assumed)
- EC50 (zfTac3rb [1]; Table 5, COS-7 cells, CRE-Luc follows PKA activation, read-out: EC50 CRE-Luc zfTac3rb): 519 ± 160 nM
- EC50 (zfTac3rb [1]; Table 6 (native peptides and analogues), PKA activation, read-out: EC50 using CRE-Luc, zfTac3rb): 191 nM
- EC50 (zfTac3ra [2]; Table 5, COS-7 cells, CRE-Luc follows PKA activation, read-out: EC50 CRE-Luc zfTac3ra): 237 ± 134 nM
- EC50 (zfTac3ra [2]; Table 6 (native peptides and analogues), PKA activation, listed as NKBb, read-out: EC50 using CRE-Luc, zfTac3ra): 99.6 nM
- EC50 (zfTac3ra [2]; Table 6 (native peptides and analogues), PKA activation, read-out: EC50 using CRE-Luc, zfTac3ra): 99.6 ± 12.9 nM
- luciferase activity ([3]; both SRE-Luc and CRE-Luc, both signal transduction pathways): less effective than the other forms
- activation of the piscine NKB receptors ([3]; zebrafish tac3ra and tac3rb, FIGS. 11A, B, D, E): lowest effect
- potency [4]: relatively low potency
- EC50 (zfTac3rb [5]; Table 5, COS-7 cells, SRE-Luc follows PKC activation, read-out: EC50 SRE-Luc zfTac3rb): 33.8 ± 14.7 nM
- EC50 (zfTac3rb [5]; Table 7 (native peptides and analogues), PKC activation, listed as NKBb, read-out: EC50 using SRE, zfTac3rb): 15.3 nM
- EC50 (zfTac3rb [5]; Table 7 (native peptides and analogues), PKC activation, read-out: EC50 using SRE, zfTac3rb): 15.3 ± 18.3 nM
- SRE-driven luciferase activity, response (huNK3R; COS-7 cells transiently transfected with human NK3R): lowest effect
- EC50 (huNK3R; Table 5, COS-7 cells, SRE-Luc follows PKC activation, mean ± SEM): 204 ± 139 nM
- EC50 (zfTac3ra [6]; Table 5, COS-7 cells, SRE-Luc follows PKC activation, read-out: EC50 SRE-Luc zfTac3ra): 8.96 ± 1.19 nM
- EC50 (zfTac3ra [6]; Table 7 (native peptides and analogues), PKC activation, read-out: EC50 using SRE, zfTac3ra): 6.06 nM
- LH secretion [7]: significant increase; also recorded: less pronounced
